Experimental data as given in patent US20240173440A1, “HIGH PURITY COPPER RADIOPHARMACEUTICAL COMPOSITIONS AND DIAGNOSTIC AND THERAPEUTIC USES THEREOF” (Nuclidium AG, priority 2022, published 2024).

Experiments:
[1] = test system: HT-1080.hFAP and HT-1080.wt xenografts; experiment: Quantitative biodistribution in HT-1080.hFAP and HT-1080.wt xenografted mice; format: in vivo; conditions: for Biodistribution HT-1080.wt: FAP-negative tumor; for Biodistribution HT-1080.hFAP: FAP-positive tumor
Method: The tumors were allowed to grow to an average volume of 100-200 mm3.
Biodistribution Studies: The xenografted mice were randomized (n=5 per group) and injected intravenously via the tail vein with the ^61Cu-labeled radioligands (100 μL, […], 0.8-1MBq). Mice were euthanized 1h and 4h pi. by CO2 asphyxiation. Organs of interest and blood were collected, rinsed of excess blood, blotted dry, weighed, and counted in a […]. The samples were counted against a suitably diluted aliquot of the injected solution as the standard and the results are expressed as the percentage of the injected activity per gram of tissue (0% I.A./g)+SD.

hFAP = hFAP (Homo sapiens (Human), UniProt Q12884); experiment: Saturation binding on isolated HEK-293.hFAP cell membranes; set-up: Bmax: unit not given here; conditions: 37° C.
hFAP, sequence (Q12884 whole entry): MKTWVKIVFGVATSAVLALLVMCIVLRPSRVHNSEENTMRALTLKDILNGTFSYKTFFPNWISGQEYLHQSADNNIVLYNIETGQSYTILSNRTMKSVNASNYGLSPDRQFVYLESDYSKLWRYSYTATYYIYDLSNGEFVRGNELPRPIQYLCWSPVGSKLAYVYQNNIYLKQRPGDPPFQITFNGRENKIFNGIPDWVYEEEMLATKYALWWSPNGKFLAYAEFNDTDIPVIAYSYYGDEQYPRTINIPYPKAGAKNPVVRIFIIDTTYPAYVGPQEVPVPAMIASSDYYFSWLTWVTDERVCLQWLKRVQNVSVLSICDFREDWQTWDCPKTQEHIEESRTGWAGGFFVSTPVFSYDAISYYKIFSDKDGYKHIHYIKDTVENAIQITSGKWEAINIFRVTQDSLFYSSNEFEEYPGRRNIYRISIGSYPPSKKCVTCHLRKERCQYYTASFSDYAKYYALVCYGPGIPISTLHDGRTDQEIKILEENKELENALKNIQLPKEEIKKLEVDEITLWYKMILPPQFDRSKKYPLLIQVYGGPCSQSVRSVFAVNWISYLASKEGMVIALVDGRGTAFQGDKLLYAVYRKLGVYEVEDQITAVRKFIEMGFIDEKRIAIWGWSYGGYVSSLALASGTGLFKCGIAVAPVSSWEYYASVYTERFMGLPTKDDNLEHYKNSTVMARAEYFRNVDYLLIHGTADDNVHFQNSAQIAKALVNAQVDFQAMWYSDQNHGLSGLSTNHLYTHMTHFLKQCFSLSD
Method: The cells were homogenized using Ultra-Turrax, and the homogenized suspension was centrifuged at 500×g for 10 min at 4° C. The supernatant was collected in centrifuge tubes (Beckman Coulter Inc., Brea, CA, USA). This procedure was then repeated 5 times. The collected supernatant was centrifuged in an ultra-centrifuge (Beckman) at 4° C. for 55 min at 49,000×g. Then, the pellet was re-suspended in 10 mM ice-cold HEPES buffer (pH 7.5), aliquoted, and stored at −80° C. The protein concentration of those membrane suspensions was determined by the Bradford method, BSA as the standard.
Each assay tube contained 170 μL of binding buffer (20 mM HEPES, pH 7.4, containing 4 mM μgCl2, 0.2% BSA, 20 μg/L bacitracin, 20 μg/L PMSF and 200,000 KIU/L aprotinin). The incubation was initiated by adding 30 μL of radioligand solution at 10 times the final concentration and 100 μL of cell membrane suspension to yield 10 μg of protein per well. For the determination of the non-specific binding, 140 μL of the above binding buffer was added along with 30 μL of FAPI-46 to obtain (0.1 mM). Bound fractions were plotted versus the corresponding radioligand concentration at equilibrium. The dissociation constant (KD) and maximal binding capacity (Bmax) values were calculated using GraphPad Software Inc., Prism 7, San Diego, CA, USA (Table 33 and FIG. 21).

[2] = Remaining PET activity in the mouse body 4h p.i.; format: in vivo; conditions: mice
Method: PET/CT Imaging: Mice bearing FAP-positive and FAP-negative xenografts were injected intravenously with ^61Cu-labeled radioligands of the present disclosure or ^61Cu-NODAGA-FAPI-46 (100 μL/[…]/6-12 MBq). […] The mice were euthanized by CO2 at 4 hours p.i., and static PET scans were acquired for 30 min.
Remaining PET activity in the mouse body 4h p.i. prior to the 4h scan was determined (Table 36).

HT-1080.hFAP cells = experiment: In vitro cellular uptake (cell surface and internalized fractions) in HT-1080.hFAP cells; format: cell-based, human
Method: (§1) The cellular uptake was studied in vitro using intact cells seeded in 6-well plates overnight. On the day of the experiment, the cells were washed and incubated with each of the exemplified [^61Cu]Cu-radiotracer at different time points, either alone or in the presence of a blocking agent to distinguish between specific and non-specific uptake. At each investigated time point, the medium containing the unbound (free) radiotracer was removed, followed by two washing steps with ice-cold phosphate-buffered saline. The cells were then treated 2×5 min with ice-cold glycine solution (0.05 M, pH 2.8) to detach the cell surface-bound radiotracer (acid released). Afterwards, the cells containing the internalized radiotracer were detached with 1 M NaOH at 37° C. and collected for measurement. The amount of specific cell surface-bound and internalized radiotracer is expressed as percentage of the total applied activity, after subtracting the non-specific values.
as §1, with “^61Cu-labeled conjugate” for “of the exemplified [^61Cu]Cu-radiotracer”
The cells were then preconditioned in 360 μL of assay medium (MEM medium without supplements) at 37° C. for 60 min. 40 μL of a 2 nM solution of ^61Cu-labeled radioligand was added and the cells were incubated at 37° C. The cellular uptake was interrupted at different time points (15 min, 1 hour and 4 hours), by washing twice with ice-cold PBS. Cell surface-bound radioligand was obtained by washing cells twice with ice-cold glycine buffer (pH 2.8), followed by a collection of the internalized fraction with 1 M NaOH. The activity in each fraction was measured in a γ-counter (Cobra II).

[3] = 1 h p.i., HT-1080.hFAP and HT-1080.wt xenografts
[4] = 4 h p.i., HT-1080.hFAP and HT-1080.wt xenografts
[5] = HT-1080.hFAP and HT-1080.wt xenografts

N#C[C@@H]1CC(F)(F)CN1C(=O)CNC(=O)c1ccnc2ccc(NC(=O)CCC(=O)NCCNC(=O)CC[C@H](C(=O)O)N3CCN4CCN(CC3)CC(=O)[O][61Cu][O]C(=O)C4)cc12 [[^61Cu]Cu-NODAGA-F1]
Biodistribution Spleen ([1]; 1 hour p.i.): 0.8 ± 0.1 % I.A./g
Biodistribution Adrenal [1, 3]: 2.3 ± 0.5 % IA/g
Biodistribution Blood [1, 3]: 2.3 ± 0.1 % IA/g
Biodistribution Femur [1, 3]: 10.9 ± 1.1 % IA/g
Biodistribution HT1080.hFAP (FAP-positive tumor) [1, 3]: 12.6 ± 1.5 % IA/g
Biodistribution HT1080.wt (FAP-negative tumor) [1, 3]: 4.5 ± 0.6 % IA/g
Biodistribution Heart [1, 3]: 1.2 ± 0.3 % IA/g
Biodistribution Intestine [1, 3]: 1.7 ± 0.4 % IA/g
Biodistribution Kidney [1, 3]: 2.4 ± 0.3 % IA/g
Biodistribution Liver [1, 3]: 1.5 ± 0.0 % IA/g
Biodistribution Lung [1, 3]: 1.8 ± 0.0 % IA/g
Biodistribution Muscle [1, 3]: 2.6 ± 0.7 % IA/g
Biodistribution Pancreas [1, 3]: 2.5 ± 0.3 % IA/g
Biodistribution Spleen [1, 3]: 0.8 ± 0.1 % IA/g
Biodistribution Stomach [1, 3]: 1.1 ± 0.2 % IA/g
Biodistribution Heart ([1]; 4 hours p.i.): 0.7 ± 0.1 % I.A./g
Biodistribution Liver ([1]; 4 hours p.i.): 1.0 ± 0.2 % I.A./g
Biodistribution Lung ([1]; 4 hours p.i.): 0.8 ± 0.2 % I.A./g
Biodistribution Spleen ([1]; 4 hours p.i.): 0.5 ± 0.1 % I.A./g
Biodistribution Stomach ([1]; 4 hours p.i.): 0.7 ± 0.1 % I.A./g
Biodistribution Adrenal [1, 4]: 1.4 ± 0.2 % IA/g
Biodistribution Blood [1, 4]: 1.2 ± 0.3 % IA/g
Biodistribution Femur [1, 4]: 4.2 ± 1.5 % IA/g
Biodistribution HT1080.hFAP (FAP-positive tumor) [1, 4]: 7.1 ± 3.0 % IA/g
Biodistribution HT1080.wt (FAP-negative tumor) [1, 4]: 2.1 ± 0.5 % IA/g
Biodistribution Heart [1, 4]: 0.7 ± 0.1 % IA/g
Biodistribution Intestine [1, 4]: 1.1 ± 0.4 % IA/g
Biodistribution Kidney [1, 4]: 1.5 ± 0.5 % IA/g
Biodistribution Liver [1, 4]: 1.0 ± 0.2 % IA/g
Biodistribution Lung [1, 4]: 0.8 ± 0.2 % IA/g
Biodistribution Muscle [1, 4]: 1.3 ± 0.1 % IA/g
Biodistribution Pancreas [1, 4]: 1.4 ± 0.2 % IA/g
Biodistribution Spleen [1, 4]: 0.5 ± 0.1 % IA/g
Biodistribution Stomach [1, 4]: 0.7 ± 0.1 % IA/g
Biodistribution HT-1080.wt ([1]; 1 hour p.i.): 4.5 ± 0.6 % I.A./g
Biodistribution HT-1080.wt ([1]; 4 hours p.i.): 2.1 ± 0.5 % I.A./g
Biodistribution HT-1080.hFAP ([1]; 1 hour p.i.): 12.6 ± 1.5 % I.A./g
Biodistribution HT-1080.hFAP ([1]; 4 hours p.i.): 7.1 ± 3.0 % I.A./g
accumulation in tumor and target-positive tissues [1, 5]: high accumulation in FAP-positive (HT-1080.hFAP) tumor and murine-FAP-positive tissues
Bmax (hFAP): 8.6-9.2
retention in the body (remaining PET activity) [2]: highest retention in the body

N#C[C@@H]1CC(F)(F)CN1C(=O)CNC(=O)c1ccnc2ccc(NC(=O)CCC(=O)N3CCN(C(=O)CC[C@H](C(=O)O)N4CCN5CCN(CC4)CC(=O)[O][61Cu][O]C(=O)C5)CC3)cc12 [[^61Cu]Cu-NODAGA-F3]
Cell surface fraction (HT-1080.hFAP cells; 15 min, HT-1080.hFAP cells, specific uptake (minus HT-1080.wt)): 0.9 ± 0.3 % of the applied activity
Cell surface fraction (HT-1080.hFAP cells; Time Point 15 min, 0.2 nM): 0.9 ± 0.3 percentage of the total applied activity
Biodistribution Heart ([1]; 1 hour p.i.): 0.7 ± 0.1 % I.A./g
Biodistribution Intestine ([1]; 1 hour p.i.): 0.8 ± 0.2 % I.A./g
Biodistribution Liver ([1]; 1 hour p.i.): 0.9 ± 0.1 % I.A./g
Biodistribution Spleen ([1]; 1 hour p.i.): 0.5 ± 0.1 % I.A./g
Biodistribution Stomach ([1]; 1 hour p.i.): 0.8 ± 0.1 % I.A./g
Biodistribution Adrenal [1, 3]: 2.1 ± 0.6 % IA/g
Biodistribution Blood [1, 3]: 1.7 ± 0.1 % IA/g
Biodistribution Femur [1, 3]: 5.4 ± 1.2 % IA/g
Biodistribution HT1080.hFAP (FAP-positive tumor) [1, 3]: 7.9 ± 0.9 % IA/g
Biodistribution HT1080.wt (FAP-negative tumor) [1, 3]: 4.0 ± 2.2 % IA/g
Biodistribution Heart [1, 3]: 0.7 ± 0.1 % IA/g
Biodistribution Intestine [1, 3]: 0.8 ± 0.2 % IA/g
Biodistribution Kidney [1, 3]: 1.6 ± 0.3 % IA/g
Biodistribution Liver [1, 3]: 0.9 ± 0.1 % IA/g
Biodistribution Lung [1, 3]: 1.2 ± 0.1 % IA/g
Biodistribution Muscle [1, 3]: 2.1 ± 0.8 % IA/g
Biodistribution Pancreas [1, 3]: 1.6 ± 0.2 % IA/g
Biodistribution Spleen [1, 3]: 0.5 ± 0.1 % IA/g
Biodistribution Stomach [1, 3]: 0.8 ± 0.1 % IA/g
Biodistribution Blood ([1]; 4 hours p.i.): 0.9 ± 0.0 % I.A./g
Biodistribution Heart ([1]; 4 hours p.i.): 0.5 ± 0.0 % I.A./g
Biodistribution Intestine ([1]; 4 hours p.i.): 0.4 ± 0.1 % I.A./g
Biodistribution Kidneys ([1]; 4 hours p.i.): 1.0 ± 0.2 % I.A./g
Biodistribution Liver ([1]; 4 hours p.i.): 0.7 ± 0.1 % I.A./g
Biodistribution Lung ([1]; 4 hours p.i.): 0.7 ± 0.1 % I.A./g
Biodistribution Pancreas ([1]; 4 hours p.i.): 0.9 ± 0.0 % I.A./g
Biodistribution Spleen ([1]; 4 hours p.i.): 0.3 ± 0.0 % I.A./g
Biodistribution Stomach ([1]; 4 hours p.i.): 0.5 ± 0.0 % I.A./g
Biodistribution Adrenal [1, 4]: 1.4 ± 0.3 % IA/g
Biodistribution Blood [1, 4]: 0.9 ± 0.0 % IA/g
Biodistribution Femur [1, 4]: 3.7 ± 0.3 % IA/g
Biodistribution HT1080.hFAP (FAP-positive tumor) [1, 4]: 6.4 ± 2.0 % IA/g
Biodistribution HT1080.wt (FAP-negative tumor) [1, 4]: 1.8 ± 0.3 % IA/g
Biodistribution Heart [1, 4]: 0.5 ± 0.0 % IA/g
Biodistribution Intestine [1, 4]: 0.4 ± 0.1 % IA/g
Biodistribution Kidney [1, 4]: 1.0 ± 0.2 % IA/g
Biodistribution Liver [1, 4]: 0.7 ± 0.1 % IA/g
Biodistribution Lung [1, 4]: 0.7 ± 0.1 % IA/g
Biodistribution Muscle [1, 4]: 1.1 ± 0.1 % IA/g
Biodistribution Pancreas [1, 4]: 0.9 ± 0.0 % IA/g
Biodistribution Spleen [1, 4]: 0.3 ± 0.0 % IA/g
Biodistribution Stomach [1, 4]: 0.5 ± 0.0 % IA/g
Biodistribution HT-1080.wt ([1]; 1 hour p.i.): 4.0 ± 2.2 % I.A./g
Biodistribution HT-1080.wt ([1]; 4 hours p.i.): 1.8 ± 0.3 % I.A./g
Biodistribution HT-1080.hFAP ([1]; 1 hour p.i.): 7.9 ± 0.9 % I.A./g
Biodistribution HT-1080.hFAP ([1]; 4 hours p.i.): 6.4 ± 2.0 % I.A./g
accumulation in tumor and target-positive tissues [1, 5]: high accumulation in FAP-positive (HT-1080.hFAP) tumor and murine-FAP-positive tissues
Bmax (hFAP): 7.3-8.1
